From US20230000816A1, “SODIUM-GLUCOSE LINKED TRANSPORTER INHIBITORS FOR THE MANAGEMENT OF CHRONIC KIDNEY DISEASE, HYPERTENSION, AND HEART FAILURE IN COMPANION ANIMALS” (INCREVET, INC., priority 2019, published 2023)

Key:
Sprague-Dawley rats = assay: PPAR-γ agonist (pioglitazone)-mediated fluid retention / plasma expansion model, 7 days, drugs in drinking water; format: in vivo, rat
Description: It has been recognized in human clinical practice that an undesirable side effect of PPAR-γ agonists of the thiazolidinedione class is fluid retention and edema, which limits their use in patients with congestive heart failure. The mechanism of action of the thiazolidinediones is believed to be through stimulation of expression of the epithelial sodium channel (ENaC) in the kidney, resulting in an increased uptake of sodium ions from the distal tubule. Sodium retention and the associated expansion of extracellular fluid volume are characteristic features of congestive heart failure in multiple species. […] The sodium channel blocker amiloride was delivered in drinking water to a third group of rats as a comparator. Plasma expansion was measured by hematocrit. […] Food weight was recorded to measure consumption over the course of the experiment. […] Full bottles were pre-weighed and the weights recorded to allow consumption to be measured over the course of the experiment. On days 1 and 7, rats were warmed using a heating pad and lightly anesthetized using isoflurane. Using a sterile scalpel blade, a small tail nick was made on the distal one third of the tail. Blood was collected in a heparinized microcapillary tube sealed with putty at one end and stored on ice until centrifugation (5000 rpm, 5 min). Plasma volume was determined using a microhematocrit capillary tube reader card. On day 7, rats, food and water bottles were again weighed and recorded and hematocrits were determined using blood collected by a tail nick.

[1] = system: client-owned cats with heart disease; conditions: 151 client-owned cats with heart disease; cited from earlier work
cats with CKD = conditions: cited from earlier work; for reduction in urinary protein to creatinine ratio: cats, 7, 30, 60, 90, 120 and 180 days
[2] = system: client-owned dogs with CKD; conditions: cited from earlier work
[3] = system: dogs with stage C heart failure; conditions: cited from earlier work; for median survival: dogs with stage C heart failure, composite primary endpoint
[4] = system: diabetic subjects with stage A3 albuminuria; conditions: humans, median 2.62 years; cited from earlier work
[5] = system: human SGLT2 compared to human SGLT1; conditions: compared with other SGLT inhibitors; cited from earlier work
[6] = system: dogs with stage B heart failure; conditions: cited from earlier work
[7] = rats, day 1 to day 7, mean ± SEM
[8] = rats, pioglitazone diet, mean ± SEM
[9] = rats, relative to day 1, mean ± SEM

N=C(N)NC(=O)c1nc(Cl)c(N)nc1N [Amiloride, reference compound]
Plasma volume, Day 7 (Sprague-Dawley rats; rats after 7 days pioglitazone diet, group mean ± SEM): 56.6 ± 0.4 % of blood volume | Plasma volume, Day 1 (Sprague-Dawley rats; rats on 0.03% pioglitazone diet, by hematocrit, group mean ± SEM): 52.7 ± 0.9 % of blood volume | Effect on pioglitazone-mediated plasma expansion (conclusion) (Sprague-Dawley rats; rats, 7 days): markedly less effective than bexagliflozin | Body Weight (%), Δ (percent mass gain) (Sprague-Dawley rats; [7]): 10.8 ± 0.7% | Body Weight (g), Δ (Sprague-Dawley rats; [7]): 40.0 ± 2.8 g | Plasma volume, Δ (day 1 to day 7) (Sprague-Dawley rats; rats, pioglitazone diet, group mean ± SEM): 3.9 ± 0.7 % of blood volume | Body Weight (g), Day 1 (Sprague-Dawley rats; [8]): 370.0 ± 6.0 g | Body Weight (g), Day 7 (Sprague-Dawley rats; [8]): 410.0 ± 7.7 g | Body Weight (%), Day 1 (Sprague-Dawley rats; [9]): 100 ± 0% | Body Weight (%), Day 7 (Sprague-Dawley rats; [9]): 110.8 ± 0.7 %

CCOC(=O)[C@H](CCc1ccccc1)N[C@H]1CCc2ccccc2N(CC(=O)O)C1=O [benazepril]
primary endpoint of treatment failure [1]: no benefit | reduction in urinary protein to creatinine ratio (cats with CKD): not significant | difference in renal survival time vs placebo ([2]; 49 client-owned dogs): significance was not realized | proteinuria (urinary protein to creatinine ratio) ([2]; dogs, p=0.0032): significantly improved | median survival [3]: 140 days

Cc1ccc([C@@H]2O[C@H](CO)[C@@H](O)[C@H](O)[C@H]2O)cc1Cc1ccc(-c2ccc(F)cc2)s1 [canagliflozin]
risk of composite of end-stage kidney disease, doubling of serum creatinine, or renal or cardiovascular death, lower than placebo [4]: 30%

CCc1ccc([C@@H]2O[C@H](CO)[C@@H](O)[C@H](O)[C@H]2O)cc1Cc1ccc2c(c1)OCCO2 [licogliflozin]
selectivity for human SGLT2 compared to human SGLT1 (in words) [5]: lower selectivity

Cc1cc(OCCCNCC(C)(C)C(N)=O)ccc1Cc1c(O[C@@H]2O[C@H](CO)[C@@H](O)[C@H](O)[C@H]2O)n[nH]c1C(C)C [mizagliflozin]
selectivity for human SGLT2 compared to human SGLT1 (in words) [5]: more active against SGLT1 than SGLT2

COc1ccc(-c2nc3ccc(C4=NNC(=O)CC4C)cc3[nH]2)cc1 (stereo not shown) [pimobendan]
median survival [3]: 267 days | hazard ratio ([3]; pimobendan vs benazepril, 95% CI 0.516 to 0.916, p=0.0099): 0.688 | median time to the primary endpoint ([6]; dogs with stage B heart failure, onset of CHF, cardiac-related death, or euthanasia, 95% CI: 856-NA): 1228 days | hazard ratio ([6]; pimobendan vs placebo, 95% CI: 0.47-0.87): 0.64

CCOc1ccc(Cc2cc([C@@H]3O[C@H](SC)[C@@H](O)[C@H](O)[C@H]3O)ccc2Cl)cc1 [sotagliflozin]
selectivity for human SGLT2 compared to human SGLT1 (in words) [5]: lower selectivity

CCCc1nc2c(C)cc(-c3nc4ccccc4n3C)cc2n1Cc1ccc(-c2ccccc2C(=O)O)cc1 [telmisartan]
comparison with benazepril (cats with CKD; cats with CKD): noninferior to benazepril | reduction in urinary protein to creatinine ratio (cats with CKD): significant at all time points
